Test system: tau, phosphorylated on the sites Thr212 and Ser214 (AT100)
Assay: Tau phosphorylation (AT100) in cortical neurons after Aβ1-42 injury
Assay type: cell-based, rat
Details: Aβ1-42 injury 72 h; doses above 1 nM
Procedure: Rat cortical neurons cultured with microglia were cultured as described by Callizot et al. in J Neurosci Res. 2013, 91: 706-716 with modifications to include microglial cells. Pregnant female rats (Rats Wistar; Janvier Labs France) of 15 days of gestation were killed, after a deep anesthesia with CO2, by cervical dislocation. Then, fetuses were collected and immediately placed in ice-cold L15 Leibovitz medium with a 2% penicillin (10,000 U/ml) and streptomycin (10 mg/ml) solution (PS) and 1% bovine serum albumin (BSA). Cortexes were treated for 20 min at 37° C. with a trypsin-EDTA solution at a final concentration of 0.05% trypsin and 0.02% EDTA. The dissociation was stopped by addition of Dulbecco's modified Eagle's medium (DMEM) with 4.5 g/liter of glucose, containing DNAse I grade II (final concentration 0.5 mg/ml) and 10% fetal calf serum (FCS). Cells were mechanically dissociated by three forced passages through the tip of a 10-mL pipette. […] Viable cells were counted in a Neubauer cytometer, using the trypan blue exclusion test. […]
Cortical neurons were intoxicated with A3 solutions (see below) after 11 days of culture. […] This solution was gently agitated for 3 days at 37° C. in the dark and immediately used after being properly diluted in control medium to the concentrations used ([…] of Aβ1-42 preparation containing […] of Aβ oligomers (AβO) measured by WB). […]

Substance: N-(3-(4-(3-(diisobutylamino)propyl)piperazin-1-yl)propyl)-1H-benzo[d]imidazol-2-amine sesqui-succinate salt [sesqui-succinate salt Form 1]
- hyperphosphorylation of Tau (AT100 in MAP-2 neurons): significantly reduced

Reference: US20230391729A1, “SUCCINATE SALTS OF N-(3-(4-(3-(DIISOBUTYLAMINO)PROPYL)PIPERAZIN-1-YL)PROPYL)-1H-BENZO[D]IMIDAZOL-2-AMINE, PREPARATION THEREOF AND USE OF THE SAME” (ALZPROTECT, priority 2020, published 2023)
